Data from patent publication US6503951B2, “Use of creatine and/or creatine derivatives for treating typical disorders in women” (SKW Trostberg Aktiengesellschaft, priority 1999, dated 2003).

Columns and labels:
[1] = system: depressions, lethargy and physical feebleness; blood pressure; test: Case 6:  two; format: in vivo, person
Excerpt: Both they themself and their family noticed these improvements.

[2] = system: migraines; pain during menstruation; test: Case 2:  four with migraines and menstrual pain; format: in vivo, person
[3] = system: depressions, lethargy and physical feebleness; test: Case 4: postmenopausal person seven; format: in vivo; settings: daily dose of 1 to 4 g
Excerpt: The improvements were also noticed by their family.

PMS = test: Case 7:  six with PMS; format: in vivo, person; settings: average daily dose of 5 g

Compound: CN(CC(=O)O)C(=N)N.O [creatine monohydrate]
- blood pressure ([1]; combined with an antihypertensive agent, previously severely hypertonic (sys up to 270)): returned to normal
- motivation (lethargy) ([1]; daily dose of 1 to 5 g): unexpected new motivation
- spirits (depressions) ([1]; daily dose of 1 to 5 g): rise in spirits
- strength (physical feebleness) ([1]; daily dose of 1 to 5 g): increase in strength
- migraine attacks provoked by heat or bodily or mental exertion ([2]; daily dose of 1.5 g, even under extreme conditions): able to prevent the attacks

Compound: creatine ascorbate
- motivation (lethargy) [3]: unexpectedly motivated
- spirits (depressions) [3]: rise in spirits
- strength (physical feebleness) [3]: gained in strength

Compound: creatine pyruvate
- abdominal pain (PMS): no longer suffered
- physical complaints of PMS (PMS): complete relief
- tenderness and swelling of the breast (PMS): no longer suffered
- pain during menstruation ([2]; dose not stated): able to stop the pain
